The values that follow come from PMC8673761, “CLN7 is an organellar chloride channel regulating lysosomal function” (Science Advances, 2021).

Residue numbers refer to the chain shown, from its start.

Assay [1] concerns the target T1, hCLN7 (EGFP-CLN7, MFSD8) (Homo sapiens, UniProt Q8NHS3).
T1 construct: full length, 518 residues, N-terminal EGFP tag kept (pEGFP-C2); expressed in HEK293T (endolysosomes); PM-targeted mutant in HeLa
T1 sequence (Q8NHS3 1-518): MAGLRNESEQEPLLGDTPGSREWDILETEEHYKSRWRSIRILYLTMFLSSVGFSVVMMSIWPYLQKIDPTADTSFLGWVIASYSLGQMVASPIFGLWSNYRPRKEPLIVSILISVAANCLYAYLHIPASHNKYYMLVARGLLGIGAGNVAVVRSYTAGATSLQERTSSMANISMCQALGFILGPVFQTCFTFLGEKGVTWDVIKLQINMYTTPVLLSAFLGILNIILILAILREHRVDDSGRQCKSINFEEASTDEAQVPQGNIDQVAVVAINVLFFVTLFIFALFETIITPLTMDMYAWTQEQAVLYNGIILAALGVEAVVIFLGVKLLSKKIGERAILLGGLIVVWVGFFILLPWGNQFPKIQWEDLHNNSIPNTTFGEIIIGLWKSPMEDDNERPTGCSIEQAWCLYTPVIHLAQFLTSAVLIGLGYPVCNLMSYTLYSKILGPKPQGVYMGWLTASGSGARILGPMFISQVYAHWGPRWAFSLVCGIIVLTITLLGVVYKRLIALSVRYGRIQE
The assay can be described thus: whole-endolysosomal patch clamp, Cl- current. The assay is classed as cell-based.

Assay [2] concerns the target T2, YCR023C (yeast CLN7 homolog) (Saccharomyces cerevisiae, UniProt P25351).
T2 construct: full length, codon-optimised synthetic gene, N-terminal EGFP tag kept (pEGFP-C1); expressed in HeLa cells
T2 sequence (P25351 1-611): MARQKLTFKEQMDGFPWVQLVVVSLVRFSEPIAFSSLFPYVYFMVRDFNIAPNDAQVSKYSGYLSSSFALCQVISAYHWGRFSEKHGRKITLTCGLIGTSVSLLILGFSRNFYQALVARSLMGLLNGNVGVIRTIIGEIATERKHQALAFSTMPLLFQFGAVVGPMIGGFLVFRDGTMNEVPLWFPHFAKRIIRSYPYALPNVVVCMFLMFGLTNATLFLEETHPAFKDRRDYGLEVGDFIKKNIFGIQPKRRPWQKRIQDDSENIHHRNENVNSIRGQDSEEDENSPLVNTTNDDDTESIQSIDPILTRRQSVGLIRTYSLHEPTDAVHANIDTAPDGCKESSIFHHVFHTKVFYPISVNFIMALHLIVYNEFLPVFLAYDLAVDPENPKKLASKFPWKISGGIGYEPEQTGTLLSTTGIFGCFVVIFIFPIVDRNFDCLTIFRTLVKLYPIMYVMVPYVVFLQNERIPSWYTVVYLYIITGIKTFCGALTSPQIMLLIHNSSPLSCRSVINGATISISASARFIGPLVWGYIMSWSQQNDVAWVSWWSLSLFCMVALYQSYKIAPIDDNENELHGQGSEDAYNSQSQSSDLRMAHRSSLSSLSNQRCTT
Briefly: whole-cell patch clamp in HeLa, Cl- current. The assay is classed as cell-based, Homo sapiens. The conditions noted are these: EGFP-tagged; bath 150 mM HCl pH 4.6 (NMDG), pipette pH 7.2.

For assay [3], the target named is T3, hCLN7 (EGFP-CLN7, MFSD8) (Homo sapiens, UniProt Q8NHS3, L13A/L14A).
T3 construct: full length, 518 residues, N-terminal EGFP tag kept (pEGFP-C2); expressed in HEK293T (endolysosomes); PM-targeted mutant in HeLa
T3 sequence (Q8NHS3 1-518 L13A/L14A): T1 sequence (Q8NHS3 1-518) with L13A, L14A
Briefly: whole-cell patch clamp in HeLa, Cl- current. The assay is classed as cell-based. The conditions noted are these: EGFP-tagged, plasma membrane-targeted; bath 150 mM HCl pH 4.6 (NMDG), pipette pH 7.2.

`O=S(=O)(O)c1cc(N=C=S)ccc1/C=C/c1ccc(N=C=S)cc1S(=O)(=O)O` [DIDS, 4,4‘-diisothiocyano-2,2‘-stilbenedisulfonate] came in with an IC50 in assay [1] of 32.3 ± 6.08 µM. The “whole-cell patch clamp in HeLa, Cl- current” value (from here on “whole-cell patch clamp in HeLa”) in assay [2] was “including outward rectification and sensitivities to DIDS, NFA, and NPPB”.

In the case of `O=C(O)c1cccnc1Nc1cccc(C(F)(F)F)c1` [NFA], it took 42.4 ± 7.13 µM to reach half-maximal inhibition in assay [1] (IC50). Moreover, the “whole-cell patch clamp in HeLa” value in assay [3] is “the whole-cell currents were also outward-rectifying and sensitive to pH, DIDS, NFA, and NPPB”; in assay [2], “including outward rectification and sensitivities to DIDS, NFA, and NPPB”.

In assay [1], `O=C(O)c1cc([N+](=O)[O-])ccc1NCCCc1ccccc1` [NPPB, 5-Nitro-2-(3-phenylpropylamino)benzoic acid] displayed an IC50 of 0.0069 ± 0.00157 µM. Moreover, the “whole-cell patch clamp in HeLa” value in assay [3] was “the whole-cell currents were also outward-rectifying and sensitive to pH, DIDS, NFA, and NPPB”; in assay [2], “including outward rectification and sensitivities to DIDS, NFA, and NPPB”.
